Source: PubChem BioAssay (NCI)
Where “and” joins values, the source holds several entries; their conditions need not be identical. Equal values may be shown once.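 Growth conditions: 96-well plates. Treatment: test compound, 48 hours, 5 concentrations. Analysis: linear interpolation between bracketing concentrations; unreached endpoints set to highest concentration. At the GI50, growth is halved. TGI: total growth inhibition.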

Tests used:
Test in all cases: DTP human tumour cell line panel, 48 h
A498 renal = test system: A498 renal
HCT-116 colon = test system: HCT-116 colon
HOP-92 NSCLC = test system: HOP-92 NSCLC
K-562 leukemia = test system: K-562 leukemia
MALME-3M melanoma = test system: MALME-3M melanoma
MOLT-4 leukemia = test system: MOLT-4 leukemia
OVCAR-3 ovarian = test system: OVCAR-3 ovarian
SK-MEL-28 melanoma = test system: SK-MEL-28 melanoma
UACC-257 melanoma = test system: UACC-257 melanoma
DU-145 prostate = test system: DU-145 prostate

SMILES	GI50 (A498 renal) [µM]	TGI (A498 renal) [µM]	GI50 (HCT-116 colon) [µM]	TGI (HCT-116 colon)	GI50 (HOP-92 NSCLC) [µM]	TGI (HOP-92 NSCLC) [µM]	GI50 (K-562 leukemia) [µM]	TGI (K-562 leukemia)	GI50 (MALME-3M melanoma) [µM]	TGI (MALME-3M melanoma)	GI50 (MOLT-4 leukemia) [µM]	TGI (MOLT-4 leukemia) [µM]	GI50 (OVCAR-3 ovarian) [µM]	TGI (OVCAR-3 ovarian)	GI50 (SK-MEL-28 melanoma) [µM]	TGI (SK-MEL-28 melanoma) [µM]	GI50 (UACC-257 melanoma) [µM]	TGI (UACC-257 melanoma) [µM]	GI50 (DU-145 prostate) [µM]	TGI (DU-145 prostate) [µM]
CC(=O)[CH-]C(C)=O.[CH2-]C.[CH2-]C.[Tl+3]	> 100	> 100	> 100	> 100 µM	> 100	> 100	> 100	> 100 µM	> 100	> 100 µM	> 100	> 100	> 100	> 100 µM	> 100	> 100	> 100	> 100		
CC(=O)OC1COC(n2c(=S)n(-c3ccccc3)c(=O)c3cc(Br)ccc32)C(OC(C)=O)C1OC(C)=O (configuration not stated)		> 100		> 100 µM		55.5		> 100 µM		> 100 µM		> 100		> 100 µM		> 100		> 100		
COC1OC(C)C(OCc2ccccc2)C(OS(=O)(=O)c2ccc(C)cc2)C1OS(=O)(=O)c1ccc(C)cc1 (configuration not stated)				> 100 µM				> 100 µM		> 100 µM		> 100		> 100 µM		> 100		> 100		
C#CCC(N)(CO)C(=O)O (configuration not stated)		> 100		> 100 µM		> 100		> 100 µM		> 100 µM		> 100		> 100 µM		> 100		> 100		
CC(=O)[O-].CC(=O)[O-].CC(=O)[O-].CC(=O)[O-].[Mo+2].[Mo+2]	> 100	> 100	> 100	> 100 µM	39.9	> 100	> 100	> 100 µM	> 100	> 100 µM	> 100	> 100	> 100	> 100 µM	> 100	> 100	> 100	> 100		
CC1=C(C(=O)Nc2ccccc2C)C(/C=C/c2ccccc2)C(C(=O)Nc2ccccc2C)=C(C)N1		> 100		> 100 µM		> 100		> 100 µM		> 100 µM				> 100 µM		> 100		> 100		
CNC(SC)=C1C(=O)OC(C)(C)OC1=O		> 100		> 100 µM		> 100		> 100 µM		> 100 µM		> 100		> 100 µM		> 100		> 100		
COc1cc2cnc3c4ccccc4ccc3c2cc1OC		> 100						> 100 µM		> 100 µM		> 100		> 100 µM		> 100		> 100		
CCCCCCCCCCCCCC(=O)OCC1OC(=O)CC1O (configuration not stated)		> 100		> 100 µM		40.2		61.5 µM		> 100 µM		> 100		> 100 µM				> 100		
CSc1c(C)c(C)nn1-c1ccccc1		> 100						> 100 µM		> 100 µM		> 100				> 100		> 100		
COc1ccc(Nc2nc3ccccc3nc2-c2cccs2)cc1		> 100		> 100 µM		> 100		> 100 µM		> 100 µM		> 100		> 100 µM		> 100		> 100		
Cn1c2ccccc2c2c(=O)c3ccccc3[nH]c21	18	64.8	17.6	52.9 µM			> 100	> 100 µM			> 100	> 100	> 100	> 100 µM	> 100	> 100			33.2	> 100
O=C1c2cccnc2-c2nc(-c3ccncc3)cc3c2c1nc1ccccc13	38.5	> 100	17.1	51 µM			15.4	> 100 µM	14.9	29.3 µM	5.14	> 100	7.51	20 µM	> 100	> 100	> 100	> 100	20.6	42.7
O=C1C(SCCO)=C(SCCO)C(=O)c2ccccc21		1.35		9.54 µM		2.42		3.87 µM		2.85 µM		0.481		3.22 µM		3.18		2.59		
C=C(CN1CCc2ccccc2C1)c1ccc(C(=O)Nc2ccccc2N)cc1			1.93	> 23.2 µM	3.37	15.8	2.32	> 11.3 µM			0.72	2.03	1.38	6.76 µM	0.389	6.53	1.55	16.2	2.45	15.7
CCOC(=O)C(=O)Nc1ccccc1C(F)(F)F		> 100		> 100 µM		> 100				> 100 µM				> 100 µM		> 100		> 100		
O=C1C=C(O)c2[nH]c(=O)ccc2C1=O		> 100		> 100 µM		> 100		> 100 µM		> 100 µM		> 100		> 100 µM		> 100		> 100		
Cc1ccc(S(=O)(=O)N/N=C(\c2nc3ccc([N+](=O)[O-])cc3[nH]c2=O)C(O)c2ccccc2Cl)cc1 (configuration not stated)		> 100		> 100 µM		> 100		> 100 µM		> 100 µM		> 100		> 100 µM		> 100		> 100		
Cc1cc(N(CCC#N)CCC#N)ccc1/C=C1N=C(/C=C/c2ccccc2)OC(=O)N\1		> 100		> 100 µM				> 100 µM		> 100 µM		> 100		> 100 µM		> 100		> 100		
C[n+]1c2ccccc2cc2c(CNC(CCCN=C(N)N)C(=O)O)cccc21 (configuration not stated)		8.7	0.343	1.26 µM and 1.07 µM	0.327	0.991	0.485	1.09 µM and 7.63 µM	3.48	4.54 µM and 10.7 µM		0.852	1.57	6.36 µM and 4.58 µM		3.65	1.98	3.9		
CN(C)Cc1c[nH]c2c(NCCN)c3c(c(NCCN)c12)C(=O)c1ccccc1C3=O			0.625	5.29 µM	1.53	5.49	0.516	> 100 µM	3.99	18.7 µM	1.7	> 35.7	1.74	6.43 µM	8.8	23.3	6.18	> 23.8	5.55	18.7

SMILES	GI50 (A498 renal) [µM]	TGI (A498 renal) [µM]	GI50 (HCT-116 colon) [µM]	TGI (HCT-116 colon)	GI50 (HOP-92 NSCLC) [µM]	TGI (HOP-92 NSCLC) [µM]	GI50 (K-562 leukemia) [µM]	TGI (K-562 leukemia)	GI50 (MALME-3M melanoma) [µM]	TGI (MALME-3M melanoma)	GI50 (MOLT-4 leukemia) [µM]	TGI (MOLT-4 leukemia) [µM]	GI50 (OVCAR-3 ovarian) [µM]	TGI (OVCAR-3 ovarian)	GI50 (SK-MEL-28 melanoma) [µM]	TGI (SK-MEL-28 melanoma) [µM]	GI50 (UACC-257 melanoma) [µM]	TGI (UACC-257 melanoma) [µM]	GI50 (DU-145 prostate) [µM]	TGI (DU-145 prostate) [µM]
Cn1cc(-c2csc(-c3cn(C)c4ccccc34)n2)c2cnccc21	2.06	3.88	0.925	2.19 µM					2.01	3.61 µM			2.16	4.13 µM	1.77	3.21	1.94	3.5	2.13	4.41
NC(N)=NS(=O)(=O)c1ccc(NC(=O)c2cccc3c(Nc4ccc(S(N)(=O)=O)cc4)c4ccccc4nc23)cc1		> 100				> 100		> 100 µM		> 100 µM		> 100		> 100 µM		> 100		> 100		
O=c1c(Cl)c(Cl)cnn1CCc1ccncc1		44.6		30.7 µM		38.5		> 100 µM		39.6 µM		> 100		31.4 µM		30.7		34.1		
COc1ccc(/C=C2/CCc3cc4ccc(OC)cc4[o+]c32)c(O)c1					11.7	29.1	11.4	93.8 µM	3.08	11.7 µM	3.71	> 100	2.48	6.09 µM	2.3	5.62	15.8	32	8.15	20.5
CC1(Cc2ccccc2)NC(=S)NC1=O (configuration not stated)						> 100				> 100 µM						> 100		> 100		
O=c1ncccn1C1C=C(CO)C(O)C1O (configuration not stated)		> 50				> 50		> 50 µM		> 50 µM		> 50		> 50 µM		> 50		> 50		
Cc1cc2c(Br)cc(Br)c(O)c2nc1C(=O)c1ccccc1		> 100		> 72.8 µM				52.1 µM		> 76.9 µM		> 100		> 79 µM		> 100		> 65.7		> 100
CC1(C)OC2COC3(CNO)OC(C)(C)OC3C2O1 (configuration not stated)		> 100		> 100 µM		> 100		> 100 µM		> 100 µM		> 100		> 100 µM		> 100		> 100		
Cc1nnc(N/N=C(/C(=O)C(C#N)c2ccccc2)C(C#N)c2ccccc2)n1N (configuration not stated)				> 55.7 µM		> 100		27.9 µM		9.29 µM		9.28		53.3 µM		36.1		13.2		
CC1(c2ccccc2)CC(c2ccccc2)=NO1 (configuration not stated)		> 100		> 100 µM		> 100		> 100 µM		> 100 µM		> 100		> 100 µM		> 100		> 100		
CC(C)c1ccccc1NC(=O)/C(Cl)=C1/Sc2ccccc2NC1=O		93.2		> 100 µM		> 100		> 100 µM		80.7 µM		79.8				> 100				
O=C1C2=C(c3ccccc31)C(c1ccccc1Cl)N1C(=O)CCSC1=N2 (configuration not stated)		> 100		> 100 µM		> 100		> 100 µM		> 100 µM		> 100		> 100 µM		> 100		> 100		
Cl[Si]1(Cl)Oc2ccccc2O[Si](Cl)(Cl)Oc2ccccc2O1		> 100		> 100 µM		89.6		40.9 µM		> 100 µM		42.8		> 100 µM		> 100				
COc1cccc(/C=C2\CCC(C)(CN(C)C)C2=O)c1 (configuration not stated)		> 100		> 100 µM		> 100		> 100 µM		> 100 µM		> 100		> 100 µM		> 100		> 100		
NC(=O)/C=C/C(=O)O				> 5000 µM		> 5000		> 5000 µM		> 5000 µM		> 5000				> 5000		> 5000		
CCOC(=O)c1ccc(N[C@@H]2c3cc4c(cc3C(C3=CC(=O)C(=O)C(OC)=C3)[C@H]3C(=O)OCC32)OCO4)cc1 (some centres not stated)		13		18.7 µM		25		> 69.4 µM		11.2 µM		> 37.7		31.7 µM		40.5		> 82.6		
CCN(CC)CC(=O)N1CCc2c([nH]c3ccccc23)C1c1cccnc1 (configuration not stated)		> 100		> 100 µM		> 100		> 100 µM				> 100		> 100 µM		> 100		> 100		
O=c1c2c3c(sc2n2c(-c4cc(-c5ccccc5)nn4-c4ccccc4)nnc2n1Cc1ccccc1)CCCC3	> 100	> 100					> 100	> 100 µM	> 100	> 100 µM			> 100	> 100 µM	> 100	> 100	> 100	> 100	> 100	> 100
C=CCC1[C@@H](C(C)(C)C(C(C)=O)C(=O)C(=O)OC)OC(C(C)(C)C)N1C(=O)OC (some centres not stated)		> 100		> 100 µM		> 100		> 100 µM		> 100 µM		70.9		> 100 µM		> 100		> 100		
O=C(NC12CC3CC(CC(C3)C1)C2)C(=O)c1c[nH]c2ccc(Cl)cc12				> 100 µM		53.2		> 100 µM		> 100 µM		> 100		57.6 µM		> 100		> 100		
Cc1ccc2nc3c(Cl)c(C)c(=O)cc-3sc2c1		> 100	39.6	> 100 µM		> 100		> 100 µM	73.8	> 100 µM		> 100	50.2	> 100 µM	> 100	> 100	78.4	> 100		
